From PubChem BioAssay (NCI)
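These data come from cells grown in 96-well plates and exposed to compound for 48 hours at five concentrations. GI50 is the concentration that inhibits growth by half. TGI: concentration producing complete growth inhibition.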

Experiments:
Experiment in all cases: DTP human tumour cell line panel, 48 h
SK-MEL-2 melanoma = system: SK-MEL-2 melanoma
LOX IMVI melanoma = system: LOX IMVI melanoma
HT29 colon = system: HT29 colon
HCT-15 colon = system: HCT-15 colon
NCI/ADR-RES ovarian = system: NCI/ADR-RES ovarian
CCRF-CEM leukemia = system: CCRF-CEM leukemia
RPMI-8226 leukemia = system: RPMI-8226 leukemia
MALME-3M melanoma = system: MALME-3M melanoma
M14 melanoma = system: M14 melanoma
NCI-H460 lung = system: NCI-H460 lung
T-47D breast = system: T-47D breast
SF-295 CNS = system: SF-295 CNS
IGROV1 ovarian = system: IGROV1 ovarian
EKVX NSCLC = system: EKVX NSCLC
U251 CNS = system: U251 CNS
BT-549 breast = system: BT-549 breast
ACHN renal = system: ACHN renal
MDA-MB-231 breast = system: MDA-MB-231 breast
OVCAR-4 ovarian = system: OVCAR-4 ovarian
SK-MEL-28 melanoma = system: SK-MEL-28 melanoma
RXF 393 renal = system: RXF 393 renal
SK-MEL-5 melanoma = system: SK-MEL-5 melanoma
A498 renal = system: A498 renal
UACC-62 melanoma = system: UACC-62 melanoma
UACC-257 melanoma = system: UACC-257 melanoma
HOP-92 NSCLC = system: HOP-92 NSCLC
OVCAR-3 ovarian = system: OVCAR-3 ovarian
NCI-H23 lung = system: NCI-H23 lung
KM12 colon = system: KM12 colon
SNB-75 CNS = system: SNB-75 CNS
HCC-2998 colon = system: HCC-2998 colon
UO-31 renal = system: UO-31 renal
SF-268 CNS = system: SF-268 CNS
SW-620 colon = system: SW-620 colon
OVCAR-8 ovarian = system: OVCAR-8 ovarian
MDA-MB-435 = system: MDA-MB-435
HL-60(TB) leukemia = system: HL-60(TB) leukemia
SNB-19 CNS = system: SNB-19 CNS
786-0 renal = system: 786-0 renal
NCI-H226 lung = system: NCI-H226 lung
A549 NSCLC = system: A549 NSCLC
COLO 205 colon = system: COLO 205 colon
OVCAR-5 ovarian = system: OVCAR-5 ovarian
SF-539 CNS = system: SF-539 CNS
HCT-116 colon = system: HCT-116 colon
HS 578T breast = system: HS 578T breast
SN12C renal = system: SN12C renal
SK-OV-3 ovarian = system: SK-OV-3 ovarian
SR leukemia = system: SR leukemia
NCI-H522 lung = system: NCI-H522 lung
HOP-62 NSCLC = system: HOP-62 NSCLC
MOLT-4 leukemia = system: MOLT-4 leukemia
MCF7 breast = system: MCF7 breast
DU-145 prostate = system: DU-145 prostate
PC-3 prostate = system: PC-3 prostate
CAKI-1 renal = system: CAKI-1 renal
TK-10 renal = system: TK-10 renal

## COC(=O)[C@@H]1CCCN1C(=O)[C@@H]1CCCN1C(=O)[C@H](Cc1ccccc1)NC(=S)Nc1cc(C(F)(F)F)cc(C(F)(F)F)c1
SK-MEL-2 melanoma
  GI50: 2.93 µM
  TGI: 7.39 µM
LOX IMVI melanoma
  GI50: 2.6 µM
  TGI: 9.89 µM
HT29 colon
  GI50: 2.76 µM
  TGI: 6.51 µM
HCT-15 colon
  GI50: 3.8 µM
  TGI: > 100 µM
NCI/ADR-RES ovarian
  GI50: 2.99 µM
  TGI: > 100 µM
CCRF-CEM leukemia
  GI50: 3.54 µM
  TGI: > 100 µM
RPMI-8226 leukemia
  GI50: 3.36 µM
  TGI: 41 µM
MALME-3M melanoma
  GI50: 5.53 µM
  TGI: > 100 µM
M14 melanoma
  GI50: 3.7 µM
  TGI: > 100 µM
NCI-H460 lung
  GI50: 3.4 µM
  TGI: > 100 µM
T-47D breast
  GI50: 4.27 µM
  TGI: > 100 µM
SF-295 CNS
  GI50: 2.16 µM
  TGI: 4.82 µM
IGROV1 ovarian
  GI50: 7.24 µM
  TGI: > 100 µM
EKVX NSCLC
  GI50: 3.07 µM
  TGI: > 100 µM
U251 CNS
  GI50: 2.79 µM
  TGI: 13.2 µM
BT-549 breast
  GI50: 4.39 µM
  TGI: 71.5 µM
ACHN renal
  GI50: 3.98 µM
  TGI: > 100 µM
MDA-MB-231 breast
  GI50: 2.04 µM
  TGI: 5.6 µM
OVCAR-4 ovarian
  GI50: 4.29 µM
  TGI: > 100 µM
SK-MEL-28 melanoma
  GI50: 3.48 µM
  TGI: > 100 µM
RXF 393 renal
  GI50: 2.19 µM
  TGI: 7.41 µM
SK-MEL-5 melanoma
  GI50: 2.6 µM
  TGI: 9.18 µM
A498 renal
  GI50: 2.55 µM
  TGI: 22.9 µM
UACC-62 melanoma
  GI50: 3.3 µM
  TGI: 63.5 µM
UACC-257 melanoma
  GI50: 2.92 µM
  TGI: 11.4 µM
HOP-92 NSCLC
  GI50: 1.77 µM
  TGI: 5.65 µM
OVCAR-3 ovarian
  GI50: 3.43 µM
  TGI: 9.98 µM
NCI-H23 lung
  GI50: 3.16 µM
  TGI: > 100 µM
KM12 colon
  GI50: 3.93 µM
  TGI: > 100 µM
SNB-75 CNS
  GI50: 2.06 µM
  TGI: 61 µM
HCC-2998 colon
  GI50: 2.65 µM
  TGI: 7.06 µM
UO-31 renal
  GI50: 3.3 µM
  TGI: > 100 µM
SF-268 CNS
  GI50: 4.83 µM
  TGI: > 100 µM
SW-620 colon
  GI50: 5.11 µM
  TGI: > 100 µM
OVCAR-8 ovarian
  GI50: 4.31 µM
  TGI: > 100 µM
MDA-MB-435
  GI50: 3.29 µM
  TGI: > 100 µM
HL-60(TB) leukemia
  GI50: 2.53 µM
  TGI: 5.49 µM
SNB-19 CNS
  GI50: 3.77 µM
  TGI: > 100 µM
786-0 renal
  GI50: 4.47 µM
  TGI: > 100 µM
NCI-H226 lung
  GI50: 3.39 µM
  TGI: > 100 µM
A549 NSCLC
  GI50: 3.82 µM
  TGI: > 100 µM
COLO 205 colon
  GI50: 2.43 µM
  TGI: 5.85 µM
OVCAR-5 ovarian
  GI50: 3.8 µM
  TGI: 42.4 µM
SF-539 CNS
  GI50: 4.51 µM
  TGI: > 100 µM
HCT-116 colon
  GI50: 3.01 µM
  TGI: 15.2 µM
HS 578T breast
  GI50: 4.49 µM
  TGI: > 100 µM
SN12C renal
  GI50: 3.47 µM
  TGI: > 100 µM
SK-OV-3 ovarian
  GI50: 9.26 µM
  TGI: > 100 µM
SR leukemia
  GI50: 3.69 µM
  TGI: 24.9 µM
NCI-H522 lung
  GI50: 3.17 µM
  TGI: 9.6 µM
HOP-62 NSCLC
  GI50: 4.56 µM
  TGI: 72.5 µM
MOLT-4 leukemia
  GI50: 2.88 µM
  TGI: 7.88 µM
MCF7 breast
  GI50: 3.08 µM
  TGI: > 100 µM
DU-145 prostate
  GI50: 5.06 µM
  TGI: > 100 µM
PC-3 prostate
  GI50: 2.72 µM
  TGI: 26.2 µM
CAKI-1 renal
  GI50: 3.55 µM
  TGI: > 100 µM
TK-10 renal
  GI50: 5.41 µM
  TGI: > 100 µM
